In PubChem BioAssay (NCI):
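Where inhibition never reached the appropriate level, the endpoint shown equals the highest concentration tested. Otherwise, values were interpolated linearly from a five-concentration, 48-hour dose response in 96-well plates. GI50 = concentration required for 50% inhibition of growth. TGI is the concentration that stops growth completely.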

Columns and labels:
Assay in all cases: growth of human tumour cells (NCI), 48 h
[1] = system: HOP-92 NSCLC
[2] = system: SF-268 CNS
[3] = system: PC-3 prostate
[4] = system: SK-MEL-28 melanoma
[5] = system: MDA-MB-435
[6] = system: IGROV1 ovarian
[7] = system: MOLT-4 leukemia
[8] = system: RXF 393 renal
[9] = system: MDA-MB-231 breast
[10] = system: SK-OV-3 ovarian
[11] = system: UO-31 renal
[12] = system: U251 CNS
[13] = system: HS 578T breast
[14] = system: CAKI-1 renal
[15] = system: HCT-15 colon
[16] = system: OVCAR-4 ovarian
[17] = system: NCI-H522 lung
[18] = system: HCC-2998 colon
[19] = system: T-47D breast
[20] = system: SF-295 CNS
[21] = system: NCI-H226 lung
[22] = system: 786-0 renal
[23] = system: SF-539 CNS
[24] = system: SW-620 colon
[25] = system: MALME-3M melanoma
[26] = system: K-562 leukemia
[27] = system: RPMI-8226 leukemia
[28] = system: LOX IMVI melanoma
[29] = system: SK-MEL-2 melanoma
[30] = system: NCI/ADR-RES ovarian
[31] = system: BT-549 breast
[32] = system: COLO 205 colon
[33] = system: HT29 colon
[34] = system: HOP-62 NSCLC
[35] = system: MCF7 breast
[36] = system: CCRF-CEM leukemia
[37] = system: TK-10 renal
[38] = system: UACC-257 melanoma
[39] = system: HCT-116 colon
[40] = system: DU-145 prostate
[41] = system: SK-MEL-5 melanoma
[42] = system: ACHN renal
[43] = system: OVCAR-8 ovarian
[44] = system: EKVX NSCLC
[45] = system: OVCAR-5 ovarian
[46] = system: OVCAR-3 ovarian
[47] = system: SN12C renal
[48] = system: UACC-62 melanoma
[49] = system: SNB-75 CNS
[50] = system: A549 NSCLC
[51] = system: NCI-H460 lung
[52] = system: SNB-19 CNS
[53] = system: KM12 colon

SMILES: O=C1c2ccccc2-c2c1c1ccccc1c(=O)n2CCN1CCOCC1
- GI50 [1]: > 100 µM
- TGI [1]: > 100 µM
- GI50 [2]: > 100 µM
- TGI [2]: > 100 µM
- GI50 [3]: > 100 µM
- TGI [3]: > 100 µM
- GI50 [4]: > 100 µM
- TGI [4]: > 100 µM
- GI50 [5]: > 100 µM
- TGI [5]: > 100 µM
- GI50 [6]: 79.4 µM
- TGI [6]: > 100 µM
- GI50 [7]: 14.7 µM
- TGI [7]: 38.6 µM
- GI50 [8]: 49 µM
- TGI [8]: > 100 µM
- GI50 [9]: > 100 µM
- TGI [9]: > 100 µM
- GI50 [10]: > 100 µM
- TGI [10]: > 100 µM
- GI50 [11]: 64.4 µM
- TGI [11]: > 100 µM
- GI50 [12]: 52.4 µM
- TGI [12]: > 100 µM
- GI50 [13]: > 100 µM
- TGI [13]: > 100 µM
- GI50 [14]: 23.9 µM
- TGI [14]: 90.3 µM
- GI50 [15]: 78.5 µM
- TGI [15]: > 100 µM
- GI50 [16]: > 100 µM
- TGI [16]: > 100 µM
- GI50 [17]: 39.5 µM
- TGI [17]: > 100 µM
- GI50 [18]: 42.5 µM
- TGI [18]: > 100 µM
- GI50 [19]: > 100 µM
- TGI [19]: > 100 µM
- GI50 [20]: 48.1 µM
- TGI [20]: > 100 µM
- GI50 [21]: 73.9 µM
- TGI [21]: > 100 µM
- GI50 [22]: > 100 µM
- TGI [22]: > 100 µM
- GI50 [23]: 84.9 µM
- TGI [23]: > 100 µM
- GI50 [24]: 87.6 µM
- TGI [24]: > 100 µM
- GI50 [25]: > 100 µM
- TGI [25]: > 100 µM
- GI50 [26]: 25.8 µM
- TGI [26]: 73.5 µM
- GI50 [27]: 39 µM
- TGI [27]: > 100 µM
- GI50 [28]: 40.5 µM
- TGI [28]: > 100 µM
- GI50 [29]: > 100 µM
- TGI [29]: > 100 µM
- GI50 [30]: > 100 µM
- TGI [30]: > 100 µM
- GI50 [31]: > 100 µM
- TGI [31]: > 100 µM
- GI50 [32]: > 100 µM
- TGI [32]: > 100 µM
- GI50 [33]: 57.8 µM
- TGI [33]: > 100 µM
- GI50 [34]: > 100 µM
- TGI [34]: > 100 µM
- GI50 [35]: 43.7 µM
- TGI [35]: > 100 µM
- GI50 [36]: 49.1 µM
- TGI [36]: > 100 µM
- GI50 [37]: 84.8 µM
- TGI [37]: > 100 µM
- GI50 [38]: > 100 µM
- TGI [38]: > 100 µM
- GI50 [39]: 36 µM
- TGI [39]: > 100 µM
- GI50 [40]: > 100 µM
- TGI [40]: > 100 µM
- GI50 [41]: 49 µM
- TGI [41]: > 100 µM
- GI50 [42]: 29.8 µM
- TGI [42]: 92 µM
- GI50 [43]: 60.6 µM
- TGI [43]: > 100 µM
- GI50 [44]: 98.8 µM
- TGI [44]: > 100 µM
- GI50 [45]: > 100 µM
- TGI [45]: > 100 µM
- GI50 [46]: 82.2 µM
- TGI [46]: > 100 µM
- GI50 [47]: 94.1 µM
- TGI [47]: > 100 µM
- GI50 [48]: 29.4 µM
- TGI [48]: > 100 µM
- GI50 [49]: > 100 µM
- TGI [49]: > 100 µM
- GI50 [50]: 64.8 µM
- TGI [50]: > 100 µM
- GI50 [51]: 55.4 µM
- TGI [51]: > 100 µM
- GI50 [52]: > 100 µM
- TGI [52]: > 100 µM
- GI50 [53]: 61.8 µM
- TGI [53]: > 100 µM
